Measurements: patent US7264795B2, “Sunscreen composition” (Merck Patent Gesellschaft, priority 2001, dated 2007)

Columns and labels:
[1] = Comparative release through an inert lipophilic membrane (Franz diffusion cell); assay type: in vitro ADME; details: after 6 hours, finite dose 5 mg/cm^2 (572 μg OMC/cell)
Excerpt: The goal of this study is to determine and compare the release of OMC from two different formulations through an inert lipophilic membrane which serves as a model (Jiang R, Benson H A E, Cross S E, Roberts M S. In vitro human epidermal and polyethylene membrane penetration and retention of sunscreen benzophenone-3 from a range of solvents. Pharm. Res., 15: 1863-1886 (1998)) for in vitro human skin applications. (Jiang R, Robert M S, Prankerd R J, Benson H A E. Percutaneous absorption of sunscreen agents from liquid paraffin: self-association of octyl salicylate and effects on skin flux. J. Pharm. Sci., 86: 791-796 (1997); Shah et al: In vitro release from corticosteorid ointments. J. Pham. Sci., 84(9): 1139-1140 (1995);).
Two formulations are prepared, one with free, the other with encapsulated OMC. Both contained the same amount of OMC (see Table 3).
Tuffryn® membranes (200 nm in pore size) are soaked for 30 minutes in isopropyl myristate and blotted dry with tissue paper prior to use. […]
Analysis is by HPLC, OMC concentrations are calculated from the ratio peak area of the OMC to an internal standard and calibration curve.

[2] = Epidermal uptake of UV filters by human epidermis (Franz diffusion cell); assay type: in vitro ADME
Description: The goal of this study is to determine and compare both the release of OMC from two different formulations through human epidermal membranes and the epidermal uptake of OMC.
Human female abdominal skin is used to heat-separate the epidermis from the dermis. The epidermal membranes thus obtained are mounted onto a Franz diffusion cell. The receptor cell contains PBS and 4% (w/v) bovine serum albumin, resulting in a pH of 7.4. The temperature is set to 35° C. Each of the two formulations is applied to 3 cells, non-occluded, with a finite dose concentration of 5 mg/cm^2 (572 μg OMC/cell). […] The duration of examination is 6 hours, 200 μl of the receptor phase is removed at specific points of time and analyzed by HPLC. To analyze the epidermal uptake, the remaining formulation is wiped from the surface of the epidermis with alcohol-soaked tissue and the skin is stripped once with adhesive tape, which is then discarded. A circular punch is used to remove a constant area of epidermis exposed to the formulations. After extraction, OMC concentrations are analyzed by HPLC.

[3] = Differential stripping of the stratum corneum (tape stripping with UV/VIS spectroscopy); assay type: in vitro ADME, porcine
Excerpt: The goal of this study was to determine and compare the distribution of OMC in the stratum corneum of two different formulations as applied to porcine skin, which serves as a model for in vivo human skin applications. The method used has been established (Weigmann H-J, Lademann J, Meffert H, Schaefer H, Sterry W: Determination of the horny layer profile by tape stripping in combination with optical spectroscopy in the visible range as a prerequisite to quantify percutaneous absorption. Skin Pharmacol Appl Skin Physiol, 12:34-45 (1999)) and is described below. This method is based on conventional stripping procedures combined with UV/VIS spectroscopy to determine both the substance, to be analyzed, and, in parallel, the weight of the comeocytes. This since it is possible to obtain the complete stratum corneum with this stripping procedure, the strips thus can be shown as a horny layer profile.
Porcine ear skin is used due to its availability and well-known similarity to human skin. […] Two formulations are applied to an area of 20 cm^2 with a concentration of 2 mg/cm^2 (200 μg OMC/cm^2) and exposed for one hour. […] Afterwards, topical application and stripping was carried out using a standard procedure (The emulsion is applied with a syringe and evenly distributed with a gloved finger. After pressure application, all strips were removed from the marked area). The stripping is repeated as long as the spectral photometer has a transmission of 99.8% compared to the original tape strip as reference.
After evaluation of the amount of stratum corneum photometrically at 900 nm, the strips are extracted with methanol, centrifuged and decanted. Amounts of OMC concentrations are calculated from the ratio peak area of the OMC to an internal OMC calibration curve. The detection limit for OMC is found to be 1 μg/ml±5%. The experiments are carried out in duplicate.
Non-particulate substances lying in the furrows are distributed evenly due to the applied pressure—this releases the substances from the furrows, while particulate substances often remain. […]

OMC reaching the receptor cell as share of the applied amount [1]: 12.5%
OMC reaching the receptor cell ([1]; 8.8% OMC, n=3): 72 µg
Epidermal uptake of OMC per mg of epidermal tissue ([2]; after 6 hours of exposure, finite dose 5 mg/cm^2, 8.8% OMC): 3.3 μg/mg tissue
Epidermal absorption compared to Eusolex UV-Pearls ([2]; heat-separated human epidermis, 6 hours): 3 fold
Share of the stratum corneum (SC) down to which OMC is found ([3]; 10% OMC formulation, 2 mg/cm^2, exposed one hour, 100% SC = 20 μm): 75 % of the SC
Maximum depth in the SC where OMC can be detected ([3]; 10% OMC formulation, 2 mg/cm^2, exposed one hour, horny layer about 20 μm): ≤ 15 μm
OMC amount in the deepest strip ([3]; strip at 15 μm depth (75% of the SC)): 1 μg/cm^2
SMILES: CCCCC(CC)COC(=O)C=Cc1ccc(OC)cc1 (centres unmarked) [Free OMC, octyl methoxycinnamate]
UV filter penetrating the epidermis into the receptor phase ([2]; 6 hours, finite dose 5 mg/cm^2 (572 μg OMC/cell), 8.8% OMC): no significant amount of UV filter penetrating the epidermis
